In test [1] the target is T1, myeloperoxidase (Homo sapiens, UniProt P05164). The test is described as follows: SE-HPLC (Superose-12) evaluation of twenty-three mer peptide binding to myeloperoxidase. The conditions noted are these: for Shift to a retention time associated with myeloperoxidase: SE-HPLC, Superose-12 column, over incubation time. The protocol:
FIGS. 7A and 7B are graphical representations of the results an evaluation of twenty- three mer peptide binding by SE-HPLC using a Superose-12 column. […] For example, the UV peak for the enzyme increased from 16% of total protein at […] of incubation to 46% of total protein after 2 h incubation.
FIGS. 7A and 7B are graphical representations of the results of an evaluation of MPO-17 twenty-three mer polypeptide binding by SE-HPLC using a Superose-12 column. […] For example, the UV peak for the enzyme increased from 16% of total protein at 5 min of incubation to 46% of total protein after 2 hours incubation.

Test [2] concerns the target T2, myeloperoxidase (Homo sapiens, UniProt P05164).
T2 construct: Slides of bone marrow tissue were used since they are known to contain myeloperoxidase; from tissue; host or cells: bone marrow tissue slides
T2 sequence (P05164 49-745): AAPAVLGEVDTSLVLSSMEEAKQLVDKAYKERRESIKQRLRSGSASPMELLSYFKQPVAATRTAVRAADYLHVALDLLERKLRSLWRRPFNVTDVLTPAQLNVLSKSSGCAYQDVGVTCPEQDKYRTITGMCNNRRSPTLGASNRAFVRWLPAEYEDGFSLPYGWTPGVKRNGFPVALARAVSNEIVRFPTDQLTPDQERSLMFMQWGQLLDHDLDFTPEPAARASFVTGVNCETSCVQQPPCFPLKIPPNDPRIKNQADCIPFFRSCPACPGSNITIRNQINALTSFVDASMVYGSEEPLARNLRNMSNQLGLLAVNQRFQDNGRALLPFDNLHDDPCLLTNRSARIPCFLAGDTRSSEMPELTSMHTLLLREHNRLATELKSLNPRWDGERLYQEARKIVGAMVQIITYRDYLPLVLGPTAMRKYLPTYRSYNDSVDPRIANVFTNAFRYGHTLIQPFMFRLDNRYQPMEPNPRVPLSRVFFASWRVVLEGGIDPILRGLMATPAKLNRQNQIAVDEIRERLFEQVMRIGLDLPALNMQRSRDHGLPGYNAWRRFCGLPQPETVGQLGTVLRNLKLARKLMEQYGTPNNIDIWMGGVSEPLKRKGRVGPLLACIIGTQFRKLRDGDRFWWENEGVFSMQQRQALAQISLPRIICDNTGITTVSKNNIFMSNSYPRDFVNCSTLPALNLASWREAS
In words: Histological staining of bone marrow tissue slides with biotinylated peptides. The conditions noted are these: biotinylated peptide, anti-biotin antibody, ABC alkaline phosphatase kit, hematoxylin counterstain. The protocol:
FIGS. 9A-9D show the results of histological studies. Slides of bone marrow tissue were used since they are known to contain myeloperoxidase. Treatments were as follows: Figure 9A, anti-myeloperoxidase antibody followed with biotinylated secondary antibody; FIG. 9B, biotinylated twenty-three mer MPO-17 peptide; FIG. 9C, biotinylated twenty-three mer control peptide; FIG. 9D, incubated with both the biotinylated twenty-three mer MPO-17 peptide and the biotinylated twenty-three mer control peptide, without primary antibody. Each slide was treated with an anti-biotin antibody and the ABC alkaline phosphatase kit (Vector labs) and counterstained with hematoxylin.
The binding of identified peptides to components of plaques was confirmed histologically as follows. Peptide sequences found in multiple selected clones were used to produce peptides using synthetic techniques. Peptides may also be produced using recombinant DNA techniques. The peptides are conjugated with a detectable label, such as biotin using known protocols. The biotin-labeled peptides are used to confirm the binding specificity determined in Example 1 and Example 2 by immunohistochemical analyses of tissue such as vulnerable plaques or tissues rich in components vulnerable plaques that have been exposed to biotin-labeled peptides.
FIGS. 9A-9D show the results of such histological studies. […]

The target in test [3] is T1, myeloperoxidase. In words: Binding of 99mTc-labeled phage clones to 125I-myeloperoxidase, separated on spin column / Sepharose 6B column. The conditions noted are these: for Relative Binding (% bound): 99mTc-phage (10^10 pfu) with 125I-myeloperoxidase (750 ng), 15-30 minutes at 4 degrees Celsius, after subtraction of binding by control phage MPO-4; for Binding to 125I-myeloperoxidase compared with control clone MPO-4 (in words): shift of 125I to higher molecular weight fractions associated with 99mTc-phage. How it is done: FIG. 6 is a graphical representation of the results of studies of the binding of several phage clones to ^125-myeloperoxidase where the relative magnitude of binding was MPO-17>MPO-6>MPO-15 >MPO-1 >control (MPO-4). The consensus phage clones were radiolabeled with ^99mTc, using mercaptoacetyltriglycine (MAG3) as chelator, and the myeloperoxidase was iodinated using iodogen. The ^99mTc-phage were incubated with the ^125I-myeloperoxidase for 15-30 minutes, and then separated on a Sepharose 6B column. The shift of ^125I to the higher molecular weight fractions associated with ^99mTc-phage indicated binding.
After three rounds of selection, twenty phage clones were sequenced and four peptides occurring in more than one clone were identified. The phage clones representing the four sequences occurring in more than one clone plus a clone having a sequence that occurred in no other selected clone were amplified, titered and conjugated with NHS-MAG3 for radiolabeling with ^99mTc. See Winnard, P. Jr, et al., Preparation and use of NHS-MAG3 for technetium-99m labeling of DNA, Nucl. Med. Biol. 1997 July; 24(5):425-32. Myeloperoxidase was radiolabeled with ^125I via iodogen and a fixed amount (750 ng) was incubated with a constant number of phage plaque forming units (10^10) of each of the four consensus clones, plus a non-consensus clone as control, each radiolabeled with ^99mTc. Myeloperoxidase was added at what was estimated to be a 10-fold molar excess over peptide. After incubating for 15-30 minutes at 4 degrees Celsius, the binding of myeloperoxidase to each phage clone was determined by separating phage from myeloperoxidase using both a MicroSpin S-200 HR spin column and a Sepharose 6B open mini-column. The ^99mTc counts were used to identify the phage-containing fractions while the 125I counts in those fractions identified the concentration of bound myeloperoxidase. The peptide sequences of the 16 mer cysteine-constrained peptides in the display domain of the PVIII coat protein and the relative binding of four clones (MPO-1, MPO-6, MPO-15 and MPO-17) are listed in Table 2, below.
FIG. 8 is a graphical representation of the results of studies of the binding of several bacteriophage clones to ^125I-myeloperoxidase where the relative magnitude of binding was MPO-17>MPO-6>MPO-15>MPO-1>control (MPO-4). The consensus phage clones were radiolabeled with ^99mTc, using MAG3 as chelator, and the myeloperoxidase was iodinated using iodogen. The ^99mTc-phage were incubated with the ^125I-myeloperoxidase for 15-30 minutes, and then separated on a Sepharose 6B column. The shift of ^125I to the higher molecular weight fractions associated with ^99mTc-phage indicated binding.

For test [4], the system named is LS-174T colon cancer cells. The test is described as follows: Binding of 99mTc-labeled phage to LS-174T colon cancer cells in vitro. It counts as cell-based. To be noted: for Relative Binding: Table 6, relative to control phage A3-12; for Binding compared to the control phage (A3-12): 6×10^5 cells per 50 μl, ~1.5×10^11 virions 99mTc-labeled phage. The protocol: For in vitro studies, LS-174T colon cancer cells, known to express the TAG-72 protein were incubated at a fixed ratio of cells (6×10^5 per 50 μl) to ^99mTc-labeled phage, ˜1.5×10^11 virions.

The test system of the next test is LS-174T tumor cubes. The test is described as follows: Binding of 99mTc-labeled phage to LS-174T solid tumor cubes. The conditions noted are these: ~1 mm tumor cubes incubated with serial dilutions of 99mTc-labeled phage. The protocol: Since TAG-72 expression is known to be higher in solid tumors than cells from culture, LS-174T cells were grown in nude mice, the resulting tumors removed and cut into ˜1 mm cubes for an assay using solid tumors. In addition to the labeled phage, the ^99mTc-labeled antibody was used to evaluate the level of antigen expression in tumor. For assay the tumor cubes were incubated with serial dilutions of ^99mTc-labeled phage or the ^99mTc-B72.3 antibody.

The subject of a further test is TAG-72. In words: Competition of unlabeled phage with 99mTc-labeled B72.3 antibody on LS-174T tumor cubes. The class given is binding. The conditions noted are these: 1 ng 99mTc-labeled B72.3 antibody, serial dilutions of unlabeled phage. The protocol: To test if phage A3-10 could compete with the B72.3, the LS-174T tumor cubes were incubated with 1 ng of ^99mTc-labeled B72.3 antibody and serial dilutions of unlabeled A3-10 phage. […] Thus, the phage is likely blocking the antibody, an indication of binding to the same target.

Where a SMILES comes first, the peptide text is derived from it. Bridges are numbered along the chain shown (N, C = ends). Where no end group is shown, it is not given here.

Consider `CC(C)C[C@H](NC(=O)[C@@H]1CSSC[C@H](NC(=O)[C@H](CCC(N)=O)NC(=O)CNC(=O)[C@H](CO)NC(=O)[C@@H](N)CCCNC(=N)N)C(=O)N[C@@H](Cc2c[nH]cn2)C(=O)N[C@@H](CC(=O)O)C(=O)N[C@@H](CC(=O)O)C(=O)N[C@@H]([C@@H](C)O)C(=O)N[C@@H](Cc2c[nH]c3ccccc23)C(=O)N[C@@H](CC(N)=O)C(=O)N1)C(=O)N[C@@H](C)C(=O)N[C@@H](CS)C(=O)N[C@H](C(=O)NCC(=O)NCC(=O)N[C@@H](CO)C(=O)NCC(=O)NCC(=O)NCC(=O)N[C@@H](CS)C(=O)O)C(C)C` [MPO-17 twenty-three mer peptide] (H-RSGQCHDDTWNCLACVGGSGGGC-OH; disulfide 5-12 (inferred); N-terminus and C-terminus assumed), for which, at myeloperoxidase [1], the “Shift to a retention time associated with myeloperoxidase” value is “gradual shift”. The “UV peak for the enzyme” value is 46 % of total protein on myeloperoxidase [1] (after 2 hours incubation of peptide with myeloperoxidase) and 16 % of total protein on myeloperoxidase [1] (at 5 min of incubation of peptide with myeloperoxidase). Besides, on myeloperoxidase [2], the Staining pattern result was “staining pattern similar to that seen with the anti-myeloperoxidase antibody”.
Take AMPVCSLDRKACTAYQ [MPO-1]: on myeloperoxidase [3], the “Relative Binding (% bound)” value was determined as 3.9% and the “Binding to 125I-myeloperoxidase compared with control clone MPO-4 (in words)” value is reported as “binding above the binding of the control clone MPO-4”.
The like results for “HVLGCSYATNSCAHNA (displayed on f88-4 phage pVIII; Chemically synthesized, clone MPO-5) [MPO-6, f88-4/Cys6 phage clone displaying this 16 mer cysteine-constrained peptide in the pVIII coat protein]” were, in that order, 5.8% and “binding above the binding of the control clone MPO-4”.
Take LKNYCRKCSNRCTPTG [A3-21]: the “Relative Binding” value in test [4] was found to be 1.
On to MNYYCHQTTKTCRTHS [A3-12], for which the “Relative Binding” value in test [4] is 1. The “Phage bound with phage added” value in the test with LS-174T tumor cubes was “no change in phage bound except at the highest concentration”.
For NLIWCRKEFARCTSDM [A3-19], in test [4], the “Binding compared to the control phage (A3-12)” value is “about 1.5 fold” and the “Relative Binding” value was 1.5.
Turning to NPGTCKDKWIECLLNG [A3-10], the “Activity associated with the binding of 99mTc-B72.3 antibody” value with TAG-72 is reported as “decreased with an increase in unlabeled phage added”. Also, in test [4], the “Binding compared to the control phage (A3-12)” value is reported as 4,3 fold and the “Relative Binding” value is recorded as 4.3. Also, the “Phage bound with phage added” value with LS-174T tumor cubes is reported as “linear increase in phage bound with phage added”.
For “QMKQCWVNTATCWGLSGGSGGGC (cysteine pairing not given here; also: biotinylated) [biotinylated for histology]”, the “Shift to a retention time associated with myeloperoxidase” value in the test with myeloperoxidase [1] is given as “no shift”. Moreover, the Staining pattern entry with myeloperoxidase [2] (listed as control peptide) is “Only the bkie hematoxylin stain is observed”.
For “RSGQCHDDTWNCLACV (displayed on f88-4 phage pVIII; Chemically synthesized, clone MPO-17) [f88-4/Cys6 phage clone displaying this 16 mer cysteine-constrained peptide in the pVIII coat protein]”, in the test with myeloperoxidase [3], the “Relative Binding (% bound)” value came to 8% and the “Binding to 125I-myeloperoxidase compared with control clone MPO-4 (in words)” value is “highest binding”.
As to “TVMLCNPMEQGCRWMC (displayed on f88-4 phage pVIII; Chemically synthesized, clone MPO-15) [f88-4/Cys6 phage clone displaying this 16 mer cysteine-constrained peptide in the pVIII coat protein]”, in the test with myeloperoxidase [3], the “Relative Binding (% bound)” value is 4.5% and the “Binding to 125I-myeloperoxidase compared with control clone MPO-4 (in words)” value is “binding above the binding of the control clone MPO-4”. Further, the “Relative Binding (% bound)” value in the test with myeloperoxidase [3] (listed as MPO-5) is given as 4.5%.
